# Source: patent publication US20260327242A1, “Platform and Scaffold for FAP Targeting Agents” (Erasmus University Medical Center Rotterdam, priority 2022, published 2026)
# Legend:
# mouse FAP (mFAP) = target: T1, mouse FAP (mFAP) (Mus musculus, UniProt P97321); assay: In vitro inhibition assay on mouse FAP (Z-GP-AMC substrate); type: biochemical; details: 20 μM Z-GP-AMC, 20 nM FAP, pH 7.4, room temperature
# T1 sequence (P97321 26-761 limits assumed): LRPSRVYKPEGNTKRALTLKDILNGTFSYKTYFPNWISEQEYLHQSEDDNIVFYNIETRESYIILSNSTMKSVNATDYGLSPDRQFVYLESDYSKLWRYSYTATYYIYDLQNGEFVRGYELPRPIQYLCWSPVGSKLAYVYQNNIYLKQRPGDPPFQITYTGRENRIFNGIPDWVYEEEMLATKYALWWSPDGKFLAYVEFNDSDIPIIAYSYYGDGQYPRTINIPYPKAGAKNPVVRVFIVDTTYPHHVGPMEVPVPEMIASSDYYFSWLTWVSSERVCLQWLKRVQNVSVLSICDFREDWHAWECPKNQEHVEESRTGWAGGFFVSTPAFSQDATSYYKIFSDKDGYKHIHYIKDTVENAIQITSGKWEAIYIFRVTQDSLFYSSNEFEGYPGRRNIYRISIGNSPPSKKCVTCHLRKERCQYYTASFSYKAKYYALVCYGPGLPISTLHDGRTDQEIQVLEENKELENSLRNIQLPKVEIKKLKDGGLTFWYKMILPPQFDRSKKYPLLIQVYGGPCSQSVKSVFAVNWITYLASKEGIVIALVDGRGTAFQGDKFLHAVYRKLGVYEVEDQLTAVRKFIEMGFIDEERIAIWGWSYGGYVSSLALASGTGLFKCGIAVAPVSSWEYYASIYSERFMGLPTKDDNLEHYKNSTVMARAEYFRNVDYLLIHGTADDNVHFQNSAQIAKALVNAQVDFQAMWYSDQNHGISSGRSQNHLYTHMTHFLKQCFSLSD
# Protocol: (§1) Enzymatic activity of human FAP (hFAP) and mouse FAP (mFAP) on the Z-GP-AMC substrate was measured at room temperature on a Hidex microplate reader by monitoring the fluorescence at an excitation wavelength of 360 nm and an emission wavelength of 465 nm. The reaction mixture contained 20 μM substrate, 20 nM FAP, assay buffer (50 mM Tris, 100 mM NaCl, 1 mM EDTA, pH 7.4) and tested compound (serial dilution from 10-6 to 10^−12) in a total volume of 50 μL.
# Results with FAPI-46 obtained in the same assay is included for comparison.
# human FAP (hFAP) = target: T2, human FAP (hFAP) (Homo sapiens, UniProt Q12884); assay: In vitro inhibition assay on human FAP (Z-GP-AMC substrate); type: biochemical; details: 20 μM Z-GP-AMC, 20 nM FAP, pH 7.4, room temperature
# T2 sequence (Q12884 26-760 limits assumed): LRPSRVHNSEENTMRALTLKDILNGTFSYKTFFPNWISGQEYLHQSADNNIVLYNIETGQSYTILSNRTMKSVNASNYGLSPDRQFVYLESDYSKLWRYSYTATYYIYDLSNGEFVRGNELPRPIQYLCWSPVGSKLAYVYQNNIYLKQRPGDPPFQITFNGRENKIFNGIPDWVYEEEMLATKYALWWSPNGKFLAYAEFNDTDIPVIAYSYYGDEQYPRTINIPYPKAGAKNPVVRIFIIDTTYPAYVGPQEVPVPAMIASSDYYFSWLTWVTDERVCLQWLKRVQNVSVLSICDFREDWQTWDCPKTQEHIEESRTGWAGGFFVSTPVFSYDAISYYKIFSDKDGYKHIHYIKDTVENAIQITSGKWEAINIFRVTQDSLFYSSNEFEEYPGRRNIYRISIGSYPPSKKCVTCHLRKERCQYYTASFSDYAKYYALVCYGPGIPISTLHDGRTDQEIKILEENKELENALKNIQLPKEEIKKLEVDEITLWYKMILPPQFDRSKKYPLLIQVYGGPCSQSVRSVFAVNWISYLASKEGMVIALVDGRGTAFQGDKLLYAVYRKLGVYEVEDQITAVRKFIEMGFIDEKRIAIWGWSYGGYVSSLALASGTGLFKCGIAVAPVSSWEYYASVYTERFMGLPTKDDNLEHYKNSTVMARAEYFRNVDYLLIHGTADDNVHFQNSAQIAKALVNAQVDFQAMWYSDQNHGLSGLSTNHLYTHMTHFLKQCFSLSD
# Protocol: as §1
SMILES,IC50 (mouse FAP (mFAP)) [nM],IC50 (human FAP (hFAP)) [nM]
"N#C[C@@H]1CC(F)(F)CN1C(=O)CNC(=O)c1ccnc2c(OCCCNC(=O)C3CCC(CNC(=O)CN4CCN(CC(=O)O)CCN(CC(=O)O)CCN(CC(=O)O)CC4)CC3)cccc12 (stereo partly drawn) [eFAP-9, 2,2′,2″-(10-(2-(((4-((3-((4-((2-((S)-2-Cyano-4,4-difluoropyrrolidin-1-yl)-2-oxoethyl)carbamoyl)quinolin-8-yl)oxy)propyl)carbamoyl)cyclohexyl)methyl)amino)-2-oxoethyl)-1,4,7,10-tetraazacyclododecane-1,4,7-triyl)triacetic acid]",2.3 ± 0.3,2.9 ± 0.6
"N#C[C@@H]1CC(F)(F)CN1C(=O)CNC(=O)c1ccnc2c(OCCCNC(=O)CN3CCC(NC(=O)CN4CCN(CC(=O)O)CCN(CC(=O)O)CCN(CC(=O)O)CC4)CC3)cccc12 [eFAP-10, (S)-2,2′,2″-(10-(2-((1-(2-((3-((4-((2-(2-Cyano-4,4-difluoropyrrolidin-1-yl)-2-oxoethyl)carbamoyl)quinolin-8-yl)oxy)propyl)amino)-2-oxoethyl)piperidin-4-yl)amino)-2-oxoethyl)-1,4,7,10-tetraazacyclododecane-1,4,7-triyl)triacetic acid]",2.4 ± 0.7,2.4 ± 0.7
"N#C[C@@H]1CC(F)(F)CN1C(=O)CNC(=O)c1ccnc2c(OCCCNC(=O)CN3CCN(C(=O)CN4CCN(CC(=O)O)CCN(CC(=O)O)CCN(CC(=O)O)CC4)CC3)cccc12 [eFAP-12, (S)-2,2′,2″-(10-(2-(4-(2-((3-((4-((2-(2-Cyano-4,4-difluoropyrrolidin-1-yl)-2-oxoethyl)carbamoyl)quinolin-8-yl)oxy)propyl)amino)-2-oxoethyl)piperazin-1-yl)-2-oxoethyl)-1,4,7,10-tetraazacyclododecane-1,4,7-triyl)triacetic acid]",1.8 ± 0.2,
"N#C[C@@H]1CC(F)(F)CN1C(=O)CNC(=O)c1ccnc2c(OCCCNC(=O)CN3CCN(CCNC(=O)CN4CCN(CC(=O)O)CCN(CC(=O)O)CCN(CC(=O)O)CC4)CC3)cccc12 [eFAP-13, (S)-2,2′,2″-(10-(2-((2-(4-(2-((3-((4-((2-(2-Cyano-4,4-difluoropyrrolidin-1-yl)-2-oxoethyl)carbamoyl)quinolin-8-yl)oxy)propyl)amino)-2-oxoethyl)piperazin-1-yl)ethyl)amino)-2-oxoethyl)-1,4,7,10-tetraazacyclododecane-1,4,7-triyl)triacetic acid]",1.3 ± 0.6,
"N#C[C@@H]1CC(F)(F)CN1C(=O)CNC(=O)c1ccnc2c(OCCCNC(=O)CCSc3nnc(SCCC(=O)NCCCOc4cccc5c(C(=O)NCC(=O)N6CC(F)(F)C[C@H]6C#N)ccnc45)c4c3CCCC(OC(=O)NCCCNC(=O)CCC(C(=O)O)N3CCN(CC(=O)O)CCN(CC(=O)O)CCN(CC(=O)O)CC3)CC4)cccc12 (stereo partly drawn) [eFAP-20, 2,2′,2″-(10-(4-((3-((((1,4-bis((3-((3-((4-((2-((S)-2-cyano-4,4-difluoropyrrolidin-1-yl)-2-oxoethyl)carbamoyl)quinolin-8-yl)oxy)propyl)amino)-3-oxopropyl)thio)-5,6,7,8,9,10-hexahydrocycloocta[d]pyridazin-7-yl)oxy)carbonyl)amino)propyl)amino)-1-carboxy-4-oxobutyl)-1,4,7,10-tetraazacyclododecane-1,4,7-triyl)triacetic acid]",1.11,1.15
N#C[C@@H]1CC(F)(F)CN1C(=O)CNC(=O)c1ccnc2c(OCCCNC(=O)CCSCC(=O)N3CN(C(=O)CSCCC(=O)NCCCOc4cccc5c(C(=O)NCC(=O)N6CC(F)(F)C[C@H]6C#N)ccnc45)CN(C(=O)Cn4nnc5c4CC[C@H]4[C@@H](CC5)[C@H]4COC(=O)NCCNC(=O)CCC(C(=O)O)N4CCN(CC(=O)O)CCN(CC(=O)O)CCN(CC(=O)O)CC4)C3)cccc12 (some centres unmarked) [eFAP-34],,1.8
N#C[C@@H]1CC(F)(F)CN1C(=O)CNC(=O)c1ccnc2c(OCCCNC(=O)CCCCCSCC(=O)N3CN(C(=O)CSCCCCCC(=O)NCCCOc4cccc5c(C(=O)NCC(=O)N6CC(F)(F)C[C@H]6C#N)ccnc45)CN(C(=O)Cn4nnc5c4CC[C@@H]4[C@H](CC5)[C@@H]4COC(=O)NCCNC(=O)CCC(C(=O)O)N4CCN(CC(=O)O)CCN(CC(=O)O)CCN(CC(=O)O)CC4)C3)cccc12 (some centres unmarked) [eFAP-35],,1.7
N#C[C@@H]1CC(F)(F)CN1C(=O)CNC(=O)c1ccnc2c(OCCCNC(=O)CCOCCOCCNCC(=O)N3CN(C(=O)CNCCOCCOCCC(=O)NCCCOc4cccc5c(C(=O)NCC(=O)N6CC(F)(F)C[C@H]6C#N)ccnc45)CN(C(=O)Cn4nnc5c4CC[C@H]4[C@@H](CC5)[C@H]4COC(=O)NCCNC(=O)CCC(C(=O)O)N4CCN(CC(=O)O)CCN(CC(=O)O)CCN(CC(=O)O)CC4)C3)cccc12 (some centres unmarked) [eFAP-36],,0.35
N#C[C@@H]1CC(F)(F)CN1C(=O)CNC(=O)c1ccnc2c(OCCCNC(=O)CCOCCOCCNc3nc(NCCCn4nnc5c4CC[C@H]4[C@@H](CC5)[C@H]4COC(=O)NCCNC(=O)CCC(C(=O)O)N4CCN(CC(=O)O)CCN(CC(=O)O)CCN(CC(=O)O)CC4)nc(NCCOCCOCCC(=O)NCCCOc4cccc5c(C(=O)NCC(=O)N6CC(F)(F)C[C@H]6C#N)ccnc45)n3)cccc12 (some centres unmarked) [eFAP-37],0.8 ± 0.1,

# The remaining lines, values ahead:
IC50 (mouse FAP (mFAP)) [nM],IC50 (human FAP (hFAP)) [nM],SMILES
2.5 ± 0.8,,"CN1/C(=C/C=C/C=C/C2=[N+](CCCCCC(=O)NCCCOc3cccc4c(C(=O)NCC(=O)N5CC(F)(F)C[C@H]5C#N)ccnc34)c3ccc(S(=O)(=O)[O-])cc3C2(C)C)C(C)(C)c2cc(S(=O)(=O)O)ccc21 [eFAP-7, 1-(6-((3-((4-((2-((S)-2-Cyano-4,4-difluoropyrrolidin-1-yl)-2-oxoethyl)carbamoyl)quinolin-8-yl)oxy)propyl)amino)-6-oxohexyl)-3,3-dimethyl-5-sulfo-2-((1E,3E)-5-((E)-1,3,3-trimethyl-5-sulfoindolin-2-ylidene)penta-1,3-dien-1-yl)-3H-indol-1-ium]"
1.1 ± 0.4,1.5 ± 0.2,"N#C[C@@H]1CC(F)(F)CN1C(=O)CNC(=O)c1ccnc2c(OCCCNC(=O)CCC(C(=O)O)N3CCN(CC(=O)O)CCN(CC(=O)O)CCN(CC(=O)O)CC3)cccc12 (stereo partly drawn) [eFAP-8, 2,2′,2″-(10-(1-Carboxy-4-((3-((4-((2-((S)-2-cyano-4,4-difluoropyrrolidin-1-yl)-2-oxoethyl)carbamoyl)quinolin-8-yl)oxy)propyl)amino)-4-oxobutyl)-1,4,7,10-tetraazacyclododecane-1,4,7-triyl)triacetic acid]"
1.5 ± 0.2,,"N#C[C@@H]1CC(F)(F)CN1C(=O)CNC(=O)c1ccnc2c(OCCCNC(=O)COCC(=O)Nc3ccc(CNC(=O)CN4CCN(CC(=O)O)CCN(CC(=O)O)CCN(CC(=O)O)CC4)cc3)cccc12 [eFAP-11, (S)-2,2′,2″-(10-(2-((4-(2-(2-((3-((4-((2-(2-Cyano-4,4-difluoropyrrolidin-1-yl)-2-oxoethyl)carbamoyl)quinolin-8-yl)oxy)propyl)amino)-2-oxoethoxy)acetamido)benzyl)amino)-2-oxoethyl)-1,4,7,10-tetraazacyclododecane-1,4,7-triyl)triacetic acid]"
2 ± 0.4,,"N#C[C@@H]1CC(F)(F)CN1C(=O)CNC(=O)c1ccnc2c(OCCCNC(=O)CC(O)CNC(=O)CC(O)CNC(=S)Nc3ccc4c(c3)C(=O)OC43c4ccc(O)cc4Oc4cc(O)ccc43)cccc12 (stereo partly drawn) [eFAP-23, N-(2-((S)-2-cyano-4,4-difluoropyrrolidin-1-yl)-2-oxoethyl)-8-(3-(4-(4-(3-(3′,6′-dihydroxy-3-oxo-3H-spiro[isobenzofuran-1,9′-xanthen]-5-yl)thioureido)-3-hydroxybutanamido)-3-hydroxybutanamido)propoxy)quinoline-4-carboxamide]"
